Measurements: publication PMC7366380, “Discovery of a Potent and Selective Covalent Inhibitor and Activity-Based Probe for the Deubiquitylating Enzyme UCHL1, with Antifibrotic Activity” (Journal of the American Chemical Society, 2020)
Several values for one entry are separate records, joined by “and”; a condition that tells them apart may be missing. Equal values may be shown once.

Key:
Assay in all cases: In-cell proteome-wide competitive ABPP, HEK293: other DUBs and proteins
[1] = target: DUBs and other proteins in HEK293 cells (Homo sapiens, UniProt Q9UPU5); conditions: replicates A-C; for Log2 reporter intensity values: USP24: competition with ABP 2, DMSO substract (FC); for Log2 reporter intensity values: USP24, DMSO subtracted
[2] = target: T1, DUBs and other proteins in HEK293 cells (Homo sapiens, UniProt P45974); conditions: replicates A-C; for Log2 reporter intensity values: USP5: competition with ABP 2, DMSO substract (FC); for Log2 reporter intensity values: USP5, DMSO subtracted
T1 sequence (P45974 1-858): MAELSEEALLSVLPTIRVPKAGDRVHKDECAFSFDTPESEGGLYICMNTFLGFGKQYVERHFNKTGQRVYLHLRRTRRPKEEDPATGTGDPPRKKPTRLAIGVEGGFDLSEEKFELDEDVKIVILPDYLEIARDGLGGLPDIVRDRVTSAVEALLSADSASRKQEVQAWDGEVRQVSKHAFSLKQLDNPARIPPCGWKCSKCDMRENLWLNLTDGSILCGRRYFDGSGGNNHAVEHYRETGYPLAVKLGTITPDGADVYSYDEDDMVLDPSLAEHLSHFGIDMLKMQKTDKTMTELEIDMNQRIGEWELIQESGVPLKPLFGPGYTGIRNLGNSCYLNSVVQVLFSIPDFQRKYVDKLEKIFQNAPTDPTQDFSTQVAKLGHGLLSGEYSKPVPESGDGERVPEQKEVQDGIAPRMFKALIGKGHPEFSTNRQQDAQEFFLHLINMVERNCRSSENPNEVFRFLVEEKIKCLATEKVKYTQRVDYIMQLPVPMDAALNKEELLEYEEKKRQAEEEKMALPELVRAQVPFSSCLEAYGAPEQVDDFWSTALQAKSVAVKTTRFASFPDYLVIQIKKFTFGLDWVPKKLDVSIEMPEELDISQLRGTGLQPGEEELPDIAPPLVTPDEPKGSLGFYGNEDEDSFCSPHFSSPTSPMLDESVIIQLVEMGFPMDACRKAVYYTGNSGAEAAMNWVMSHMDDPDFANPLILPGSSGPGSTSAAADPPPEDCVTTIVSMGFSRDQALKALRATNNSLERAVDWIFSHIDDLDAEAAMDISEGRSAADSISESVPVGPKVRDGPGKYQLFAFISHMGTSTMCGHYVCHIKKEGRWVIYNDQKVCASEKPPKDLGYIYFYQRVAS

[3] = target: DUBs and other proteins in HEK293 cells (Homo sapiens, UniProt Q93009); conditions: replicates A-C; for Log2 reporter intensity values: USP7: competition with ABP 2, DMSO substract (FC); for Log2 reporter intensity values: USP7, DMSO subtracted
[4] = target: T2, DUBs and other proteins in HEK293 cells (Homo sapiens, UniProt Q53GS9); conditions: replicates A-C; for Log2 reporter intensity values: USP39: competition with ABP 2, DMSO substract (FC); for Log2 reporter intensity values: USP39, DMSO subtracted
T2 sequence (Q53GS9 1-565): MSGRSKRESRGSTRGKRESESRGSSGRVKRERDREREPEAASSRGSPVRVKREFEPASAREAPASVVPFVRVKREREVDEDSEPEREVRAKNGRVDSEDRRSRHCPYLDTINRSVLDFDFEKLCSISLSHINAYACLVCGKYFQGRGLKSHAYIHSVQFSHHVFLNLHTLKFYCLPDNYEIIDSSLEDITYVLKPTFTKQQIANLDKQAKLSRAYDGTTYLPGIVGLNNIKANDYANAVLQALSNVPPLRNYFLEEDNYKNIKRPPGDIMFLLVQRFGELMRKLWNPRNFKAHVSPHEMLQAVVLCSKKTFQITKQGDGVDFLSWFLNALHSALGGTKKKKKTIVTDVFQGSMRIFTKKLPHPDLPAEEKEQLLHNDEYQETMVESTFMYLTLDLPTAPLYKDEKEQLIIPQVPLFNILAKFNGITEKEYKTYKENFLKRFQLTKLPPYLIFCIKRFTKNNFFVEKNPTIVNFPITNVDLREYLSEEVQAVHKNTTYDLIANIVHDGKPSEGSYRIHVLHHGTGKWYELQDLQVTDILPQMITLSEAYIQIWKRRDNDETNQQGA

[5] = target: DUBs and other proteins in HEK293 cells (Homo sapiens, UniProt O15372); conditions: for Log2 reporter intensity values, EIF3H: TMT replicates; for Log2 reporter intensity values: EIF3H: competition with ABP 2, DMSO substract (FC); for Log2 reporter intensity values: EIF3H / Log2 reporter intensity values: replicates A-C; for Log2 t-test Difference / Log2 reporter intensity values: EIF3H
[6] = target: DUBs and other proteins in HEK293 cells (Homo sapiens, UniProt P51784); conditions: replicates A-C; for Log2 reporter intensity values: USP11: competition with ABP 2, DMSO substract (FC); for Log2 reporter intensity values: USP11, DMSO subtracted
[7] = target: DUBs and other proteins in HEK293 cells (Homo sapiens, UniProt Q96FW1); conditions: replicates A-C; for Log2 reporter intensity values: OTUB1: competition with ABP 2, DMSO substract (FC); for Log2 reporter intensity values: OTUB1, DMSO subtracted
DUBs and other proteins in HEK293 cells (Homo sapiens, UniProt Q96FW1), sequence (Q96FW1 whole entry): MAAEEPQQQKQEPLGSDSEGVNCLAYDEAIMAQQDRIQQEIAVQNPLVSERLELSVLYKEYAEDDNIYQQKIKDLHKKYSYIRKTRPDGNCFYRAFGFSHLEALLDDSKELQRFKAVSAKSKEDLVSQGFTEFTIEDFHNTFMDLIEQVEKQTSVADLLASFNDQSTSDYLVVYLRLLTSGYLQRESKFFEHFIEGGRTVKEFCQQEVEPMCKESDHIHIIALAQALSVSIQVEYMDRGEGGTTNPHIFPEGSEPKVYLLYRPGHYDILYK

DUBs and other proteins in HEK293 cells (Homo sapiens, UniProt Q9UPU5), sequence (Q9UPU5 whole entry): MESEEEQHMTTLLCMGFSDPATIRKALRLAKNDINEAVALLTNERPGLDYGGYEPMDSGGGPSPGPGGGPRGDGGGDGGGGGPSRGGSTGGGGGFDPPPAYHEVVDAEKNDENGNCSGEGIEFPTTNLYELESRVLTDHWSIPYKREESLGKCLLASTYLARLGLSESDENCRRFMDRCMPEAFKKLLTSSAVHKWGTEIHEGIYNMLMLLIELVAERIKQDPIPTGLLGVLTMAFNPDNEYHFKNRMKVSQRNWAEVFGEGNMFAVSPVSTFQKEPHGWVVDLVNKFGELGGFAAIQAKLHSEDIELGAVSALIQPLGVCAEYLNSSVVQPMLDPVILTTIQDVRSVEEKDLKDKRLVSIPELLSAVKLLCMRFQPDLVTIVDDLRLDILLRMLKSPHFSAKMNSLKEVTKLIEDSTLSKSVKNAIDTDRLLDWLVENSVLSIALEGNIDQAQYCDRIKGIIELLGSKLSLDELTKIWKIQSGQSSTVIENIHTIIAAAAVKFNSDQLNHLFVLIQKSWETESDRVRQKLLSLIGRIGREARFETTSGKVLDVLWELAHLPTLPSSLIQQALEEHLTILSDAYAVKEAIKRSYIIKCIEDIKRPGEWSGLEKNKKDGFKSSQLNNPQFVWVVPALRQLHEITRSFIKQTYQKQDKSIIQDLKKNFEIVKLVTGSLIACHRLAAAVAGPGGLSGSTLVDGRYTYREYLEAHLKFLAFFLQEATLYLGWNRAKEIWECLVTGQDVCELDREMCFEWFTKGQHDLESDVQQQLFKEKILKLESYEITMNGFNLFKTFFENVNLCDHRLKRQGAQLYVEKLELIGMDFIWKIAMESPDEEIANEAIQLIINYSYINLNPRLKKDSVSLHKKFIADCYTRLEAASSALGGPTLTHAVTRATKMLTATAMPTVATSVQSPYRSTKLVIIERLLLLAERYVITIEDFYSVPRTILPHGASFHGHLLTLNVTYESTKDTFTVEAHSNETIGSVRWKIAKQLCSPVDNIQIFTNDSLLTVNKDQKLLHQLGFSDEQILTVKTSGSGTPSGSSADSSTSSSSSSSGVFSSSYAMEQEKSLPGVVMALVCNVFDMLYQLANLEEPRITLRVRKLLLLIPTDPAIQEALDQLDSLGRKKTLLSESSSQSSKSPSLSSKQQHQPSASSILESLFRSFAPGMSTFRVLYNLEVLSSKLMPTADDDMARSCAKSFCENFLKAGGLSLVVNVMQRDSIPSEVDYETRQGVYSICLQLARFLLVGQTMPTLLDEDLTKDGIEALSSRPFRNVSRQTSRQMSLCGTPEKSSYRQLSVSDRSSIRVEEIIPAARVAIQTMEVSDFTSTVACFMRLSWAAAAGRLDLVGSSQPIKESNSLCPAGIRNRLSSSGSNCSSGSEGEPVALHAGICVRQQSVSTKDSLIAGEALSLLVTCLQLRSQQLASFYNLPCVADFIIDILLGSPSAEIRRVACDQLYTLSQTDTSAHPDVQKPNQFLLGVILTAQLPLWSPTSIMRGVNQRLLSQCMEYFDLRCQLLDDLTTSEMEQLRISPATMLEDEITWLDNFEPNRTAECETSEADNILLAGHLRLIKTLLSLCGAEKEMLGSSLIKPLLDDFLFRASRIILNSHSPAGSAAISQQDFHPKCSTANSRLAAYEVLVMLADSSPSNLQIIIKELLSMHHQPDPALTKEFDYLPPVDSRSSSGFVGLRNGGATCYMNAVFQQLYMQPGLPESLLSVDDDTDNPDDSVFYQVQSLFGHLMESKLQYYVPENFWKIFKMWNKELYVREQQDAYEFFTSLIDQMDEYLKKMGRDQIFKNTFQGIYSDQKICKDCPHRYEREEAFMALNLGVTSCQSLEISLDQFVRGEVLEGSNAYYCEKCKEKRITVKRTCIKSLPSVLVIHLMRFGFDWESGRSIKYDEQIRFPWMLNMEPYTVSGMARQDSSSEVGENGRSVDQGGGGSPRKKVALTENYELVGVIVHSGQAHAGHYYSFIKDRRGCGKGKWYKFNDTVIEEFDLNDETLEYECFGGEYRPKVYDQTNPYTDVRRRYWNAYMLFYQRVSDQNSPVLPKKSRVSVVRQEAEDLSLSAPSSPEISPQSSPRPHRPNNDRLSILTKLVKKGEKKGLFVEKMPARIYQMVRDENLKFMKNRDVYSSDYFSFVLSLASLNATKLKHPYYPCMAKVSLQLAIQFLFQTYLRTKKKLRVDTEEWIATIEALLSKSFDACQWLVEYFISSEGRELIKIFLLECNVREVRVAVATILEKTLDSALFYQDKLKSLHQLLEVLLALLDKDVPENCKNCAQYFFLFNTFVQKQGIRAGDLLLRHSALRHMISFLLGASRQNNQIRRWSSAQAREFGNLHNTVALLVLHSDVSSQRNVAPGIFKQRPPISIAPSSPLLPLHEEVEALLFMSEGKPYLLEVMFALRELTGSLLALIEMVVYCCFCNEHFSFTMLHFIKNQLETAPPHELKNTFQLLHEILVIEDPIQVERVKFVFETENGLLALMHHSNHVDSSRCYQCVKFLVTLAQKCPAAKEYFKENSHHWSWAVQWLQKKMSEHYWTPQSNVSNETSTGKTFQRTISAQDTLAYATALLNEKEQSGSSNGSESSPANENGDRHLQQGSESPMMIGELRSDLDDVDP
DUBs and other proteins in HEK293 cells (Homo sapiens, UniProt Q93009), sequence (Q93009 whole entry): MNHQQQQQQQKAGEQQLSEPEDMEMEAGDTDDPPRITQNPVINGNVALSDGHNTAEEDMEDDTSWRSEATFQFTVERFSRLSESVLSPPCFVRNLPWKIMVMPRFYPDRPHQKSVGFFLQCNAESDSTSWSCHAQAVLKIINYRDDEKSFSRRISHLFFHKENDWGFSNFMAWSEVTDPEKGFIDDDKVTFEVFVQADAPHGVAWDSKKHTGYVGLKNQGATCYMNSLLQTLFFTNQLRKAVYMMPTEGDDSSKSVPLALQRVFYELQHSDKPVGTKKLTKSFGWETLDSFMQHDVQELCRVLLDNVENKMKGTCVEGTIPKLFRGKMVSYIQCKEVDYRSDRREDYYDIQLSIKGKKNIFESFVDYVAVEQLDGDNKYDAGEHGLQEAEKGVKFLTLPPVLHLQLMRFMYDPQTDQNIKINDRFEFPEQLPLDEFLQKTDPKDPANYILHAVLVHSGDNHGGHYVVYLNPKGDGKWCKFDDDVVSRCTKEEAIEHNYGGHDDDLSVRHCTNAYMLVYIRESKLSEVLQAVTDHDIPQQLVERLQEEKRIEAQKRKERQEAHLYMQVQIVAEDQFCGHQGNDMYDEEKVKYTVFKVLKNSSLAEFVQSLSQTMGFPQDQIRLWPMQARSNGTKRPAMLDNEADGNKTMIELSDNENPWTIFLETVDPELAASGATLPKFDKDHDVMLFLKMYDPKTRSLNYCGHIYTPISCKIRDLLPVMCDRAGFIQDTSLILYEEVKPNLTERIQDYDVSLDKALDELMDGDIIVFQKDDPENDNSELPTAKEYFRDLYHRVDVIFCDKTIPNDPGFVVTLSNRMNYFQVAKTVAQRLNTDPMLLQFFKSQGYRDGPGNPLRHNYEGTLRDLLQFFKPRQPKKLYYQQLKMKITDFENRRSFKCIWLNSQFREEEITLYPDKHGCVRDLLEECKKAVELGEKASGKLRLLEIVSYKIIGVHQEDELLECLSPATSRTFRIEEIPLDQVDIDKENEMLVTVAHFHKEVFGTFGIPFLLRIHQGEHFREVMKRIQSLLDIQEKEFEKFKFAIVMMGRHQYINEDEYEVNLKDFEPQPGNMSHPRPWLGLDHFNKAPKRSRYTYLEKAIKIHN
DUBs and other proteins in HEK293 cells (Homo sapiens, UniProt O15372), sequence (O15372 whole entry): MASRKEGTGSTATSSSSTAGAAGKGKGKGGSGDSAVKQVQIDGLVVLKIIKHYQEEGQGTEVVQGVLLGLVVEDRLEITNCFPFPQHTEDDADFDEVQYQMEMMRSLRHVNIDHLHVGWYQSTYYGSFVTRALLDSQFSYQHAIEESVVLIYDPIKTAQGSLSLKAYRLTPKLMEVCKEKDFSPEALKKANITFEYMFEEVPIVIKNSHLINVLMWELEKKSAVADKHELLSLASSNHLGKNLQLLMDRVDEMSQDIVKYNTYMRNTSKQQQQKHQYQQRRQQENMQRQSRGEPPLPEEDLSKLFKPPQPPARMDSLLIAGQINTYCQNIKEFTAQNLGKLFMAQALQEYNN

N#CN1CCC[C@@H]1C(=O)N1CCc2c(-c3c[nH]c4ncccc34)cccc21 [Compound 3]
Log2 reporter intensity values: USP24 ([1]; 3 at 1 μM): 1.062 and 1.01 and 1.397 | Log2 reporter intensity values: USP24 ([1]; 3 at 4 μM): 1.531 and 1.061 and 0.663 | Log2 reporter intensity values ([1]; 3_1 μM): 0.05897 and 0.007121 and 0.3935 | Log2 reporter intensity values ([1]; 3_4 μM): 0.5273 and 0.05764 and -0.3403 | Log2 reporter intensity values ([1]; 3 at 1 μM): 0.08723 and 0.01505 and 0.4822 | Log2 reporter intensity values ([1]; 3 at 4 μM): 0.6141 and 0.08543 and -0.5928 | Log2 reporter intensity values: USP5 ([2]; 3 at 1 μM): 0.9394 and 0.9901 and 0.9848 | Log2 reporter intensity values: USP5 ([2]; 3 at 4 μM): 1.005 and 1.031 and 1.063 | Log2 reporter intensity values ([2]; 3_1 μM): -0.06093 and -0.01022 and -0.01553 | Log2 reporter intensity values ([2]; 3_4 μM): 0.004396 and 0.03114 and 0.06231 | Log2 reporter intensity values ([2]; 3 at 1 μM): -0.0902 and -0.01435 and -0.02211 | Log2 reporter intensity values ([2]; 3 at 4 μM): 0.006795 and 0.04469 and 0.08765 | Log2 reporter intensity values: USP7 ([3]; 3 at 1 μM): 1.005 and 1.034 and 1.047 | Log2 reporter intensity values: USP7 ([3]; 3 at 4 μM): 0.9485 and 1.006 and 0.9977 | Log2 reporter intensity values ([3]; 3_1 μM): 0.004952 and 0.03394 and 0.04709 | Log2 reporter intensity values ([3]; 3_4 μM): -0.05181 and 0.006115 and -0.002591 | Log2 reporter intensity values ([3]; 3 at 1 μM): 0.007531 and 0.04854 and 0.06677 | Log2 reporter intensity values ([3]; 3 at 4 μM): -0.07633 and 0.0092 and -0.003335 | Log2 reporter intensity values: USP39 ([4]; 3 at 1 μM): 0.9789 and 0.9555 and 0.9911 | Log2 reporter intensity values: USP39 ([4]; 3 at 4 μM): 0.9367 and 1.076 and 1.058 | Log2 reporter intensity values ([4]; 3_1 μM): -0.0217 and -0.04512 and -0.009501 | Log2 reporter intensity values ([4]; 3_4 μM): -0.06394 and 0.07549 and 0.05768 | Log2 reporter intensity values ([4]; 3 at 1 μM): -0.03075 and -0.0657 and -0.01288 | Log2 reporter intensity values ([4]; 3 at 4 μM): -0.09439 and 0.1058 and 0.08174 | Log2 reporter intensity values, EIF3H ([5]; 1 μM 3 (60 min) + 20 nM ABP 2 (10 min), All values): -0.08032 and 0.01397 and -0.006379 | Log2 reporter intensity values, EIF3H ([5]; 1 μM 3 (60 min) + 20 nM ABP 2 (10 min), DMSO subtracted): -0.1099 and -0.01562 and -0.03597 | Log2 reporter intensity values, EIF3H ([5]; 4 μM 3 (60 min) + 20 nM ABP 2 (10 min), All values): 0.0444 and 0.04115 and 0.06318 | Log2 reporter intensity values, EIF3H ([5]; 4 μM 3 (60 min) + 20 nM ABP 2 (10 min), DMSO subtracted): 0.01481 and 0.01156 and 0.03359 | Log2 reporter intensity values: EIF3H ([5]; 3 at 1 μM): 0.9266 and 0.9892 and 0.9754 | Log2 reporter intensity values: EIF3H ([5]; 3 at 4 μM): 1.01 and 1.008 and 1.024 | Log2 t-test Difference ([5]; 3 - 1 μM): -0.05018 | Log2 t-test Difference ([5]; 3 - 4 μM): 0.02364 | Log2 reporter intensity values ([5]; 3_1 μM, DMSO subtracted): -0.0735 and -0.01091 and -0.02477 | Log2 reporter intensity values ([5]; 3_4 μM, DMSO subtracted): 0.01017 and 0.007903 and 0.02341 | Log2 reporter intensity values ([5]; 3 at 1 μM, DMSO subtracted): -0.1099 and -0.01562 and -0.03597 | Log2 reporter intensity values ([5]; 3 at 4 μM, DMSO subtracted): 0.01481 and 0.01156 and 0.03359 | Log2 reporter intensity values: USP11 ([6]; 3 at 1 μM): 1.117 and 1.058 and 1.05 | Log2 reporter intensity values: USP11 ([6]; 3 at 4 μM): 0.8158 and 0.9889 and 0.9502 | Log2 reporter intensity values ([6]; 3_1 μM): 0.1164 and 0.05763 and 0.04999 | Log2 reporter intensity values ([6]; 3_4 μM): -0.1845 and -0.01139 and -0.05014 | Log2 reporter intensity values ([6]; 3 at 1 μM): 0.1593 and 0.08129 and 0.07083 | Log2 reporter intensity values ([6]; 3 at 4 μM): -0.2937 and -0.01604 and -0.0737 | Log2 reporter intensity values: OTUB1 ([7]; 3 at 1 μM): 0.9728 and 1.005 and 0.986 | Log2 reporter intensity values: OTUB1 ([7]; 3 at 4 μM): 1.016 and 1.059 and 1.053 | Log2 reporter intensity values ([7]; 3_1 μM): -0.02736 and 0.004799 and -0.01417 | Log2 reporter intensity values ([7]; 3_4 μM): 0.01602 and 0.05888 and 0.05243 | Log2 reporter intensity values ([7]; 3 at 1 μM): -0.03984 and 0.007079 and -0.02041 | Log2 reporter intensity values ([7]; 3 at 4 μM): 0.0231 and 0.08271 and 0.07389
